# Columns and labels:
# human DAGLβ = target: T1, human DAGLβ (Homo sapiens, UniProt Q8NCG7); assay: in vitro inhibition of human DAGLβ activity; type: cell-based
# T1 sequence (Q8NCG7 1-672): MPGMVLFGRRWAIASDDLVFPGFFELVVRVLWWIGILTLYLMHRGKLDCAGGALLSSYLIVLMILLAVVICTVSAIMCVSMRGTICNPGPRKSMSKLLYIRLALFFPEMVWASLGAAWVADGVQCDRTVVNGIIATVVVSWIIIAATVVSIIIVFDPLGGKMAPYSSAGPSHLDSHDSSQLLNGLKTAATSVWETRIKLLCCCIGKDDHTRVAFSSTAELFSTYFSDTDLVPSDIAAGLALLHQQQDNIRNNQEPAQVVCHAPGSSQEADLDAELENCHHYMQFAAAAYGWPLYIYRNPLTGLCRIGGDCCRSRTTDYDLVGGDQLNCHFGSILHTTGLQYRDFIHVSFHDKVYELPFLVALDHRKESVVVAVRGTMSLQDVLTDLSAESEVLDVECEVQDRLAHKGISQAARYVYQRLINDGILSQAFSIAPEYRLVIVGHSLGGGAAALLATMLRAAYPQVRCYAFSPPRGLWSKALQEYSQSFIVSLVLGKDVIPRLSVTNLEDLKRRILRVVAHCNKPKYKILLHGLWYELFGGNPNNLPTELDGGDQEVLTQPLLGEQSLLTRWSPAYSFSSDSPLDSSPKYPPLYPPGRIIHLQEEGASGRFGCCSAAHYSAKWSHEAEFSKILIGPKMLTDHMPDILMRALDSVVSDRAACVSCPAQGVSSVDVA
# ABHD6 = target: T2, ABHD6 (Mus musculus, UniProt Q8R2Y0); assay: competitive ABPP in mouse brain proteome; type: biochemical
# T2 sequence (Q8R2Y0 1-336): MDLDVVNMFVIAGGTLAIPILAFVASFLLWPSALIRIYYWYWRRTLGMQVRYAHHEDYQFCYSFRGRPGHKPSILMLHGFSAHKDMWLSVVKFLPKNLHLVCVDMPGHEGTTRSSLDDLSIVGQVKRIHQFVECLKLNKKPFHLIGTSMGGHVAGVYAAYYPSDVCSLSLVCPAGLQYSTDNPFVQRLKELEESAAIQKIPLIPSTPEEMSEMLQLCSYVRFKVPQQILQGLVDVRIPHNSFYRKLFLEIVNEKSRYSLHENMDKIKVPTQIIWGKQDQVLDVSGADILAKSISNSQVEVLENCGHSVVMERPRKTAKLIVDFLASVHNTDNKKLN
# DAGLβ [1] = target: T3, DAGLβ (Mus musculus, UniProt Q91WC9); assay: competitive ABPP on DAGLβ-transfected HEK293T proteome; type: biochemical
# T3 sequence (Q91WC9 1-669): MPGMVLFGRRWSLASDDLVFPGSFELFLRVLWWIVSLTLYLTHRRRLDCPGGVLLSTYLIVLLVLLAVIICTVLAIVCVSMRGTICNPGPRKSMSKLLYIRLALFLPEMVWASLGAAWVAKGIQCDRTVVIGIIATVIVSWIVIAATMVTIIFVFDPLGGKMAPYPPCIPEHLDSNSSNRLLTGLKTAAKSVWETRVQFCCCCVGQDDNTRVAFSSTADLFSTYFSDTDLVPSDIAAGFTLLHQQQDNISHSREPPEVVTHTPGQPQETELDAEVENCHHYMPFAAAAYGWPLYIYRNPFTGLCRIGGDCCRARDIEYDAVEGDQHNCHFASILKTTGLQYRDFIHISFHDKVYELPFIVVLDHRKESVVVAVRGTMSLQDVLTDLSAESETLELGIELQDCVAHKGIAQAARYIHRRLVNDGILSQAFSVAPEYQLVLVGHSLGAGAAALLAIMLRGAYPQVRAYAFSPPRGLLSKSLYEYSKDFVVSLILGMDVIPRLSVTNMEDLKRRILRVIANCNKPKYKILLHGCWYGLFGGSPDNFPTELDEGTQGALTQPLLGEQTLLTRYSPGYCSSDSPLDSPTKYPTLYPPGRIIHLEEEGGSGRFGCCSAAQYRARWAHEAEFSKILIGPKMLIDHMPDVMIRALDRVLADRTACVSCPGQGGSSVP
# DAGLβ [2] = target: T3, DAGLβ; assay: inhibition of DAGLβ in transfected HEK293T lysate; type: biochemical
SMILES,IC50 (human DAGLβ),IC50 (ABHD6),IC50 (DAGLβ [1]),IC50 (DAGLβ [2])
"O=C(N1CCCCC1Cc1ccccc1)n1cc(-c2ccc(-c3ccccc3)cc2)nn1 (stereo not shown) [compound 32, KT109]",580 nM,16 nM,42 nM,–
"O=C(N1CCCCC1Cc1ccccc1)n1cc(-c2ccc(Br)cc2)nn1 (stereo not shown) [compound 31, KT116]",–,–,–,30 nM

# Reference: article PMC3513945 (Nature chemical biology, 2012)
